The subject of series [1] is Primary human preadipocytes. As to the kind of experiment: Alamar blue (resazurin) cell viability assay on preadipocytes. The class given is cell-based. The note with it: for viability at 10 µM / viability at 30 µM / viability at 50 µM / viability at 100 µM / viability at 300 µM: read-out: Viability Preadipocytes (%); for IC50: viability, 48 hrs after compound incubation, read-out: IC50 [µM] Pre-ad ipocytes. How it is done: (§1) The following experimental setup was used for determination of adipocytolytic potential of test compounds with preadipocytes and mature adipocytes: • Primary human preadipocytes (PromoCell) were seeded in Preadipocyte Growth Medium at 45000 cells/cm^2 to allow attachment overnight. Cells were cultured at 37°C and 5% CO2 until postconfluence. Differentiation was started with incubation of cells in Differentiation Medium for 7 days followed by incubation in Nutrition medium for further 14 days. After differentiation process, mature adipocytes were incubated with indicated concentration of indicated triterpenes.
(§2) 6 replicates of each test compound concentration were tested. Each plate included a negative control and a compound interference control (for all concentrations, duplicates).
(§3) Cell viability as surrogate for adipocytolytic potential of compounds were analysed by alamar blue assay. In brief, 20µl of a 0,1mg/ml Resazurin sodium salt (Sigma; R7017-1 G) solution was added to each well 48 hrs after compound incubation. The cells were incubated for 90 min at 37°C and 5% CO2 and the resulting conversion of resazurin to resorufin was measured by a fluorescence plate reader at 590 nm. Vehicle controls were set as 100%. IC50-values were analysed using SigmaBlotV13.

The subject of series [2] is mature adipocytes. As to the kind of experiment: Alamar blue (resazurin) cell viability assay on mature adipocytes, surrogate for adipocytolytic potential. The class given is cell-based, human. The note with it: for IC50: viability, 48 hrs after compound incubation; for lower IC50 value compared to deoxycholic acid (difference, higher adipocytolytic effect): IC50 ratio versus deoxycholic acid, preadipocytes and adipocytes. On the procedure: as §1, §2, §3

Series [3] has as its system adipocytes. Kind of series: Caspase-Glo 3/7 Assay, apoptosis induction in adipocytes. The note with it: for Apoptosis Adipocytes (%): basal apoptosis (vehicle) = 100%. The class given is cell-based, human. On the procedure:
as §1
For analysing the potential of compounds to induce apoptosis the Caspase-Glo® 3/7 Assay (Promega) was used as recommended by the supplier. In brief, 100µl Caspase Reagent were added to 100µl cell culture medium and cells were incubated at 37°C and 5% CO2 for 1 hr. Luminescence signal was measured with a SynergyH4 plate reader. Vehicle controls were used to define basal apoptosis as 100%. Table 1 Impact on viability of adipocytes after 48h incubation with indicated compound in increasing concentration

For series [4], the system named is adipocytes. As to the kind of experiment: LDH release from adipocytes (indicative for membrane damage). The class given is cell-based, human. As to conditions: compared with deoxycholate; far not as high as 4fold.
Setting [5] is: 10 µM, 48h incubation, vehicle controls = 100%.
[6] abbreviates: 30 µM, 48h incubation, vehicle controls = 100%.
[7] abbreviates: 50 µM, 48h incubation, vehicle controls = 100%.
[8] abbreviates: 100 µM, 48h incubation, vehicle controls = 100%.
Where [9] appears, read: 300 µM, 48h incubation, vehicle controls = 100%.
[10] abbreviates: Homo sapiens, Adipocyte, 48 h, 10 µM, 48h incubation, vehicle controls = 100%, read-out: Viability Adipocytes (%).
The mark [11] stands for this setting: Homo sapiens, Adipocyte, 48 h, 50 µM, 48h incubation, vehicle controls = 100%, read-out: Viability Adipocytes (%).
[12] abbreviates: Homo sapiens, Adipocyte, 48 h, 100 µM, 48h incubation, vehicle controls = 100%, read-out: Viability Adipocytes (%).
[13] abbreviates: Homo sapiens, Adipocyte, 48 h, 300 µM, 48h incubation, vehicle controls = 100%, read-out: Viability Adipocytes (%).
[14] abbreviates: Homo sapiens, Adipocyte, 48 h, read-out: Viability Adipocytes (%), 10 µM, 48h incubation, vehicle controls = 100%.
[15] abbreviates: Homo sapiens, Adipocyte, 48 h, read-out: Viability Adipocytes (%), 30 µM, 48h incubation, vehicle controls = 100%.
Where [16] appears, read: Homo sapiens, Adipocyte, 48 h, read-out: Viability Adipocytes (%), 50 µM, 48h incubation, vehicle controls = 100%.
[17] abbreviates: Homo sapiens, Adipocyte, 48 h, read-out: Viability Adipocytes (%), 100 µM, 48h incubation, vehicle controls = 100%.
Where [18] appears, read: Homo sapiens, Adipocyte, 48 h, read-out: Viability Adipocytes (%), 300 µM, 48h incubation, vehicle controls = 100%.
[19] abbreviates: Homo sapiens, Adipocyte, 48 h, 30 µM, 48h incubation, vehicle controls = 100%, read-out: Viability Adipocytes (%).

The structures appear in SMILES notation. Like-named read-outs stand apart in the source and are kept apart here.

Regarding `C[C@H](CCC(=O)O)[C@H]1CC[C@H]2[C@@H]3CC[C@@H]4C[C@H](O)CC[C@]4(C)[C@H]3C[C@H](O)[C@]12C` [Deoxycholic acid, reference compound], the viability at 10 µM is 96.2% in series [1] (setting [5]) and 107% in series [2] (setting [10]). Moreover, the viability at 30 µM in series [1] (setting [6]) is 92.8%. Besides, the viability at 50 µM in series [1] (setting [7]) and in series [2] (setting [11]) was 95.6% throughout. The results for the viability at 100 µM in series [1] (setting [8]) and in series [2] (setting [12]) were 98% and 94.3%, respectively. The viability at 300 µM was 26.1% in series [1] (setting [9]) and 22.1% in series [2] (setting [13]). Also, the IC50 came out at 232 µM in series [1] and 244 µM in series [2] (Homo sapiens, Adipocyte). Further, the viability at 200 µM in series [2] (Homo sapiens, Adipocyte, 48 h, 200 µM, concentration required for 50%-decrease in viability) is about 50%.

Turning to `C[C@H]1[C@H](C)CC[C@]2(C(=O)O)CC[C@]3(C)C(=CC[C@@H]4[C@@]5(C)C[C@@H](O)[C@H](O)C(C)(C)[C@@H]5CC[C@]43C)[C@H]12` [Corosolic acid, (1S,2R,4aS,6aR,6aS,6bR,8aR,10R, 11R,12aR,14bS)-10,11-Dihydroxy-1,2,6a,6b,9,9,12a-heptamethyl-2,3,4,5,6,6a,7,8,8a,10,11,12,13,14b-tetradecahydro-1H-picene-4a-carboxylic acid], the viability at 10 µM in series [1] (48 h) was 94.7%; in series [2] (setting [14]), 92.9%. Besides, the results for the viability at 30 µM in series [1] (48 h) and in series [2] (setting [15]) were 68.6% and 60.5%, respectively. Further, the values for the viability at 50 µM in series [1] (48 h) and in series [2] (setting [16]) were 20.4% and 45.3%, respectively. The viability at 100 µM in series [1] (48 h) is 0%; in series [2] (setting [17]), 6.06%. Also, the viability at 300 µM in series [1] (48 h) amounted to 0%; in series [2] (setting [18]) it was 0.47%. The IC50 in series [1] came out at 43.1 µM; in series [2] (Homo sapiens, Adipocyte), 45 µM.

Turning to `C=C(C)[C@@H]1CC[C@]2(C(=O)O)CC[C@]3(C)[C@H](CC[C@@H]4[C@@]5(C)CC[C@H](O)C(C)(C)[C@@H]5CC[C@]43C)[C@@H]12` [Betulinic acid, (3β)-3-hydroxy-lup-20(29)-en-28-oic acid], the viability at 10 µM in series [1] (setting [5]) was determined as 81.8%; in series [2] (setting [10]), 104%. In addition, the viability at 30 µM in series [1] (setting [6]) was found to be 48.5%; in series [2] (setting [19]), 85.6%. Moreover, the figures for the viability at 50 µM in series [1] (setting [7]) and in series [2] (setting [11]) were 45.1% and 70.7%, respectively. For the same molecule, the viability at 100 µM worked out at 17.5% in series [1] (setting [8]) and 32.3% in series [2] (setting [12]). The viability at 300 µM in series [1] (setting [9]) was found to be 0.45%; in series [2] (setting [13]) it was 4.9%. For the same molecule, the IC50 was 35.5 µM in series [1] and 72 µM in series [2] (Homo sapiens, Adipocyte).

Consider `CC1(C)CC[C@]2(C(=O)O)CC[C@]3(C)C(=CC[C@@H]4[C@@]5(C)C[C@@H](O)[C@H](O)C(C)(C)[C@@H]5CC[C@]43C)[C@@H]2C1` [Maslinic acid, (4aS,6aR,6aS,6bR,8aR,10R,11R,12aR,14bS)-10,11-dihydroxy-2,2,6a,6b,9,9,12a-heptamethyl-1,3,4,5,6,6a,7,8,8a,10,11,12,13,14b-tetradecahydropicene-4a-carboxylic acid], for which the “Apoptosis Adipocytes (%)” value in series [3] (30 µM, 6 hrs) was found to be 97.17%; in series [3] (30 µM, 48hrs), 121.70%; in series [3] (50 µM, 6 hrs), 126.43%; in series [3] (50 µM, 48hrs) it was 116.95%; in series [3] (100 µM, 6 hrs), 662.48%; in series [3] (100 µM, 48hrs) it was 304.15%. Further, the “Apoptosis Adipocytes (%)” value came out at 378.25% in series [3] (200 µM, 48hrs); 398.94% in series [3] (300 µM, 6 hrs); 238.76% in series [3] (300 µM, 48hrs). Further, the “max. apoptosis induction over basal levels” value in series [3] (100 µM after 6 hrs) is 6.6 fold. The pro-apoptotic capacity result in series [3] (summary of the apoptosis data) is reported as “clear pro-apoptotic capacity”. The viability at 10 µM in series [1] (setting [5]) is 96.4%; in series [2] (setting [10]) it was 96.9%. Besides, the values for the viability at 30 µM in series [1] (setting [6]) and in series [2] (setting [19]) were 76% and 76.7%, respectively. For the same molecule, the viability at 50 µM is 45.6% in series [1] (setting [7]) and about 50% in series [2] (setting [11]). Besides, the viability at 100 µM in series [1] (setting [8]) amounted to 2.42%; in series [2] (setting [12]), 4.86%. Further, the figures for the viability at 300 µM in series [1] (setting [9]) and in series [2] (setting [13]) were 0% and 0.3%, respectively. Further, the IC50 stood at 54.3 µM in series [1] and 53.4 µM in series [2] (Homo sapiens, Adipocyte). In addition, in series [2] (setting [7]), the “Viability Adipocytes (%)” value was determined as 47.08%. Moreover, the “LDH release (indicative for membrane damage) from the adipocytes” value in series [4] is listed as “higher”.

On to `C[C@H]1[C@H](C)CC[C@]2(C(=O)O)CC[C@]3(C)C(=CC[C@@H]4[C@@]5(C)CC[C@H](O)C(C)(C)[C@@H]5CC[C@]43C)[C@H]12` [Ursolic acid, (1S,2R,4aS,6aR,6aS,6bR,8aR,10S,12aR,14bS)-10-hydroxy-1,2,6a,6b,9,9,12a-heptamethyl-2,3,4,5,6,6a,7,8,8a,10,11,12,13,14b-tetradecahydro-1H-picene-4a-carboxylic acid], for which the viability at 10 µM in series [1] (setting [5]) is 74.8%; in series [2] (setting [10]), 92.4%. The viability at 30 µM in series [1] (setting [6]) was determined as 12.7%; in series [2] (setting [19]), 28.9%. For the same molecule, the figures for the viability at 50 µM in series [1] (setting [7]) and in series [2] (setting [11]) were 0.32% and 14.9%, respectively. For the same molecule, the results for the viability at 100 µM in series [1] (setting [8]) and in series [2] (setting [12]) were 0% and 13.4%, respectively. Further, the viability at 300 µM in series [1] (setting [9]) is 0%; in series [2] (setting [13]) it was 10.3%. For the same molecule, the IC50 in series [1] amounted to 20.1 µM; in series [2] (Homo sapiens, Adipocyte), 24.4 µM. Further, in series [2], the “lower IC50 value compared to deoxycholic acid (difference, higher adipocytolytic effect)” value is listed as “about 10 fold”.

For the molecule `CC1(C)CC[C@]2(C(=O)O)CC[C@]3(C)C(=CC[C@@H]4[C@@]5(C)CC[C@H](O)C(C)(C)[C@@H]5CC[C@]43C)[C@@H]2C1` [Oleanolic acid, (4aS,6aR,6aS,6bR,8aR,10S,12aR,14bS)-10-hydroxy-2,2,6a,6b,9,9,12a-heptamethyl-1,3,4,5,6,6a,7,8,8a,10,11,12,13,14b-tetradecahydropicene-4a-carboxylic acid], the figures for the viability at 30 µM in series [1] (48 h) and in series [2] (setting [15]) were 79.1% and 110%, respectively. The viability at 50 µM in series [1] (48 h) came out at 83.4%; in series [2] (setting [16]), 117%. For the same molecule, the viability at 100 µM in series [1] (48 h) turned out to be 53.3%; in series [2] (setting [17]), 32.4%. Moreover, the viability at 300 µM was 0% in series [1] (48 h) and 15.8% in series [2] (setting [18]). Further, the IC50 in series [1] came out at 125 µM; in series [2] (Homo sapiens, Adipocyte), 92.8 µM. For the same molecule, the viability at 10 µM in series [2] (setting [14]) is 114%. In series [2], the “lower IC50 value compared to deoxycholic acid (difference, higher adipocytolytic effect)” value turned out to be 2.5 fold.

These data come from patent EP3124047A1, “PENTACYCLIC TRITERPENOIDS FOR INJECTION LIPOLYSIS” (Merz Pharma GmbH & Co. KGaA, priority 2015, dated 2017).
